{"source": "patent US4804502A", "about": "“Vitamin D compounds” (priority 1988, dated 1989)", "key": {"[1]": {"tested_on": "bone calcium mobilization", "assay": "Bone Calcium Mobilization in Rat (plasma Ca increase)", "type": "in vivo", "conditions": "12.5 ng/rat, intrajugular, 18 h", "protocol": "Controls received carrier alone. Bone Ca resorption (BCR) was estimated by measuring the blood Ca increase in the treated rats. Blood was collected in heparinized tubes and centrifuged. The resulting plasma was measured for calcium concentration by atomic absorption spectroscopy. Since rats were fed a diet essentially devoid of Ca, plasma Ca increases reflected mobilization of Ca from bone, not intestinal Ca absorption."}, "[2]": {"tested_on": "vitamin D deficient rats", "conditions": "3 weeks"}, "[3]": {"tested_on": "intestinal calcium absorption (duodenum)", "assay": "Stimulation of Intestinal Calcium Absorption in Rat (intestinal 45Ca transport, everted gut sac)", "conditions": "12.5 ng/rat, intrajugular, 18 h"}, "[4]": {"biological_target": "T1, 1,25-(OH)2 D3 receptors (chick intestine) (Gallus gallus, UniProt O42392)", "T1 construct": "receptor prepared from intestine of chick, rat and calf; from tissue; host or cells: chick proximal small-intestine mucosa, cytosol, 35% ammonium sulphate precipitate", "T1 sequence (O42392 1-451)": "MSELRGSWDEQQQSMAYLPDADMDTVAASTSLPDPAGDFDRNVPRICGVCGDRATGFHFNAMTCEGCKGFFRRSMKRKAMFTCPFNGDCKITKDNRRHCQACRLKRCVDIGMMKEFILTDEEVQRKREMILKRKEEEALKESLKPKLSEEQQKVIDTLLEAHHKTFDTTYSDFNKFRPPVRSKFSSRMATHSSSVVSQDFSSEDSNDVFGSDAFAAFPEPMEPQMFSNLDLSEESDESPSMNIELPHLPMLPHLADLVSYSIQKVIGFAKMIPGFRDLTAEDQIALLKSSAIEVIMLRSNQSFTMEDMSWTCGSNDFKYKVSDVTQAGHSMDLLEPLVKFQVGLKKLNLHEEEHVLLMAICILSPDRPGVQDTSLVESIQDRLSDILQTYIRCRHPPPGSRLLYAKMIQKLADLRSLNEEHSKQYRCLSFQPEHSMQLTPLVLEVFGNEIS", "assay": "Competitive Binding to 1,25-(OH)2 D3 Intestine Receptors, chick", "conditions": "a/b×100 from amounts displacing 50% of 1,25-(OH)2[3H]D3", "protocol": "(§1) The ability of vitamin D3 metabolites to compete for 1,25-(OH)[^3 H]D3 receptor binding sites was evaluated with receptor prepared from intestine of chick, rat and calf. […] Mucosa was collected and washed three times with 10 volumes of cold KTED buffer. The washed mucosa was homogenized in KTED buffer (20% w/v) using a Polytron Pt20 tissue disruptor. Cytosol was prepared by centrifugation of the homogenized mucosa at 300,000×g for 1 hour. […] The ammonium sulphate treated cytosol was centrifuged at 20,000×g for 10 minutes. The supernatant was discarded and the pellet lyophilized and stored at […] Prior to binding assay the pellet was resuspended in cold binding assay buffer containing 150 mM KCl, 50 mM NaPO4, 1.5 mM EDTA and 5 mM dithiothreitol."}, "[5]": {"biological_target": "T2, 1,25-(OH)2 D3 receptors (calf intestine) (Bos taurus, UniProt Q28037)", "T2 construct": "receptor prepared from intestine of chick, rat and calf; from tissue; host or cells: calf proximal small-intestine mucosa, cytosol, 35% ammonium sulphate precipitate", "T2 sequence (Q28037 1-426)": "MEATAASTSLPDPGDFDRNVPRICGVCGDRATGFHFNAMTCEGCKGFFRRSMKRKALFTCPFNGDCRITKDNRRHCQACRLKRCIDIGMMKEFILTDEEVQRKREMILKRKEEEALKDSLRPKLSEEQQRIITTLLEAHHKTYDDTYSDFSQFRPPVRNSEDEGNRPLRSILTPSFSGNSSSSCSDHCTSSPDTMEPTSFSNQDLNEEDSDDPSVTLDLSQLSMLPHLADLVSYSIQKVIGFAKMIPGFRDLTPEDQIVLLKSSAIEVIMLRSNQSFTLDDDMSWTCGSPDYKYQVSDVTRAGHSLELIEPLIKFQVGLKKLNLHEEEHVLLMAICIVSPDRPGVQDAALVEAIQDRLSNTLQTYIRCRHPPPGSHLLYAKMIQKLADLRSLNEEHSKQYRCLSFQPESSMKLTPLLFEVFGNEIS", "assay": "Competitive Binding to 1,25-(OH)2 D3 Intestine Receptors, calf", "conditions": "a/b×100 from amounts displacing 50% of 1,25-(OH)2[3H]D3", "protocol": "as §1"}, "[6]": {"tested_on": "HL-60 promyelocytic leukemia cells", "assay": "Inhibition of proliferation of HL-60 cells", "type": "cell-based", "conditions": "Homo sapiens, HL-60, 192 h; for IC50: read-out: ID50 (concentration which reduced the cell number by 50%)", "protocol": "(§2) Inhibition of Cell Proliferation and Induction of Cell Differentiation\n(§3) Cultures of HL-60 promyelocytic leukemia cells were established in the absence (control) and presence of various concentrations of test compounds. After an 8-day incubation period, the cultures were evaluated for proliferation of tumor cells, cell viability, and cellular differentiation. Proliferation was assessed by directly enumerating the increased number of tumor cells resulting from cell division during incubation. Viability was assessed by dye exclusion technique to learn whether any of the compounds were lethal to the cultured HL-60 cells. Cellular differentiation was evaluated by determining the number of cells which had acquired the enzymes necessary to support a respiratory burst, a characteristic of mature macrophages and granulocytes.\n(§4) Tissue culture medium used in these experiments was RPMI-1640 supplemented to 10% v/v with heat-inactivated fetal bovine serum and to an additional 1.6 mM with L-glutamine.\n(§5) Test compounds were dissolved in sufficient ethanol to yield stock solutions of 1×10^-2 or 1×10^-3 molar. Reduced lighting was used when working with compounds and stock solutions were stored in the dark at -20° C. in an argon atmosphere. Compounds were diluted in tissue culture medium and added to flasks containing HL-60 cells to achieve the final concentration described in each test.\n(§6) The HL-60 tumor cell line was originally derived from a patient with promyelocytic leukemia and was obtained from the American Type Culture Collection. The cells were maintained in liquid culture by serial passage twice weekly in tissue culture medium. […] In any test, three replicate flasks were incubated without compound (control) or in the presence of varying concentrations of test compound. Ethanol, used as the vehicle, was kept constant in all dilutions in each test and had no effect on cell proliferation, viability or cell differentiation at the concentrations used (≤0.1%). After 8 days of incubation at 37° in a humidified atmosphere of 5% CO2 in air, cultures were evaluated for tumor cell proliferation, viability and differentiation.\nQuantitation of proliferation was done by enumerating the number of HL-60 cells in each individual flask (3 flasks per experimental point) using an Elzone electronic particle counter. Results are shown as the percent reduction of cell number calculated for each concentration tested according to the formula: [formula] The results are also expressed as the concentration which reduced the cell number by 50% (ID50)."}, "[7]": {"tested_on": "HL-60 promyelocytic leukemia cells", "assay": "Induction of differentiation of HL-60 cells (NBT reduction)", "type": "cell-based, human", "conditions": "for EC50: Homo sapiens, HL-60, 192 h, read-out: ED50 (concentration which induced differentiation of 50% of the cells)", "protocol": "as §2, §3, §4, §5, §6\nQuantitation of differentiated cells was done by the biochemical method of nitroblue tetrazolum (NBT) reduction. One million HL-60 cells were pooled from replicate cultures, centrifuged at 220×g for 10 minutes, and resuspended in 1 ml of Ca^++ -Mg^++ -deficient phosphate buffered saline prepared by supplementing Ca^++ -Mg^++ -free phosphate buffered saline (PBS) to 20% v/v with heat-inactivated fetal bovine serum). Nitroblue tetrazolium was dissolved at 0.5 mg per ml in Ca^++ -Mg^++ -free PBS with gentle heating and frequent mixing. A stock solution of 1 mg tetradecanoyl phorbol acetate (TPA) per ml in ethanol, stored at -20°, was diluted 100-fold with Ca^++ -Mg^++ -free PBS to prepare a working solution. The test was done by adding 1 ml of NBT solution and 0.02 ml of the working TPA solution to the HL-60 cells. After mixing, the tubes were incubated in a 37° water bath for 25 minutes then transferred to ice. Undifferentiated and differentiated cells present in any sample were determined microscopically by surveying a minimum of 300 cells per sample. Cells without pigmented granules (clear cells) were judged to be undifferentiated while those containing greater than 3 blue-black formazan granules were scored as differentiated. Generally, differentiated cells were intensely pigmented clearly indicating the enzymatic conversion of NBT to formazan. Results are expressed as the percentage of differentiated cells present in any sample as calculated according to the formula: [formula] The results are also expressed as the concentration of compound which induced differentiation of 50% of the cells (ED50)."}, "[8]": {"conditions": "8 days, from dose response curves"}, "[9]": {"conditions": "read-out: % Reduction in cell number"}}, "note": "Where two headings read alike, the source gives them in different places.", "data": [{"smiles": "C=C1/C(=C\\C=C2/CCC[C@]3(C)[C@@H]([C@H](C)CCCC(C)(C)O)CC[C@@H]23)C[C@@H](O)C[C@@H]1O", "note": "[1,25-(OH)2 D3, reference compound]", "values": [{"measurement": "% of 1,25-(OH)2 D3 Effect in Rat, bone calcium mobilization", "setting": "[1]", "value": 100, "unit": "%"}, {"measurement": "Bone Mass", "setting": "[2]; daily dose 15 ng", "value": "156 ± 16", "unit": "mm^3 /cm^3"}, {"measurement": "Serum Ca^2+", "setting": "[2]; daily dose 15 ng", "value": "11.76 ± 0.16", "unit": "mg/dL"}, {"measurement": "Serum PO4^2-", "setting": "[2]; daily dose 15 ng", "value": "7.61 ± 0.31", "unit": "mg/dL"}, {"measurement": "Bone Mass", "setting": "[2]; daily dose 60 ng", "value": "296 ± 56", "unit": "mm^3 /cm^3"}, {"measurement": "Serum Ca^2+", "setting": "[2]; daily dose 60 ng", "value": "11.92 ± 0.40", "unit": "mg/dL"}, {"measurement": "Serum PO4^2-", "setting": "[2]; daily dose 60 ng", "value": "6.58 ± 0.30", "unit": "mg/dL"}, {"measurement": "% of 1,25-(OH)2 D3 Effect in Rat, intestinal calcium absorption", "setting": "[3]", "value": 100, "unit": "%"}]}, {"smiles": "C=C1CC[C@H](O)C/C1=C/C=C1\\CCC[C@]2(C)[C@@H]([C@H](C)CC#CC(O)(C(F)(F)F)C(F)(F)F)CC[C@@H]12", "note": "[Compound D, 25-hydroxy-23-yne-26,26,26,27,27,27-hexafluorocholecalciferol]", "values": [{"measurement": "% of 1,25-(OH)2 D3 Effect in Rat, bone calcium mobilization", "setting": "[1]", "value": 11, "unit": "%"}, {"measurement": "Competitive Binding to 1,25-(OH)2 D3 Receptors - % of 1,25-(OH)2 D3 Effect, chick intestine", "setting": "[4]", "value": 0, "unit": "%"}, {"measurement": "Competitive Binding to 1,25-(OH)2 D3 Receptors - % of 1,25-(OH)2 D3 Effect, calf intestine", "setting": "[5]", "value": 0, "unit": "%"}, {"measurement": "inhibition at 0.01 µM", "setting": "[6]; 1 × 10^-8 M, 8 days, read-out: % Reduction in cell number", "value": 0, "unit": "%"}, {"measurement": "inhibition at 0.1 µM", "setting": "[6]; 10 × 10^-8 M, 8 days, read-out: % Reduction in cell number", "value": 14, "unit": "%"}, {"measurement": "inhibition at 1 µM", "setting": "[6]; 100 × 10^-8 M, 8 days, read-out: % Reduction in cell number", "value": 77, "unit": "%"}, {"measurement": "IC50", "setting": "[6]; [8]", "value": 250, "unit": "nM"}, {"measurement": "% Differentiated cells", "setting": "[7]; 1 × 10^-8 M, 8 days", "value": 6, "unit": "%"}, {"measurement": "% Differentiated cells", "setting": "[7]; 10 × 10^-8 M, 8 days", "value": 27, "unit": "%"}, {"measurement": "% Differentiated cells", "setting": "[7]; 100 × 10^-8 M, 8 days", "value": 99, "unit": "%"}, {"measurement": "EC50", "setting": "[7]; [8]", "value": 200, "unit": "nM"}, {"measurement": "% of 1,25-(OH)2 D3 Effect in Rat, intestinal calcium absorption", "setting": "[3]", "value": 0, "unit": "%"}]}, {"smiles": "C=C1CC[C@H](O)C/C1=C/C=C1\\CCC[C@]2(C)[C@@H]([C@H](C)CC#CC(C)(C)O)CC[C@@H]12", "note": "[Compound C, 25-hydroxy-23-yne-cholecalciferol]", "values": [{"measurement": "% of 1,25-(OH)2 D3 Effect in Rat, bone calcium mobilization", "setting": "[1]", "value": 0, "unit": "%"}, {"measurement": "Competitive Binding to 1,25-(OH)2 D3 Receptors - % of 1,25-(OH)2 D3 Effect, chick intestine", "setting": "[4]", "value": 0, "unit": "%"}, {"measurement": "Competitive Binding to 1,25-(OH)2 D3 Receptors - % of 1,25-(OH)2 D3 Effect, calf intestine", "setting": "[5]", "value": 0, "unit": "%"}, {"measurement": "inhibition at 0.1 µM", "setting": "[6]; [9]", "value": 0, "unit": "%"}, {"measurement": "inhibition at 1 µM", "setting": "[6]; [9]", "value": 31, "unit": "%"}, {"measurement": "inhibition at 3 µM", "setting": "[6]; [9]", "value": 79, "unit": "%"}, {"measurement": "IC50", "setting": "[6]", "value": 1500, "unit": "nM"}, {"measurement": "% Differentiated cells", "setting": "[7]; 10 × 10^-8 M, 8 days", "value": 5, "unit": "%"}, {"measurement": "% Differentiated cells", "setting": "[7]; 100 × 10^-8 M, 8 days", "value": 27, "unit": "%"}, {"measurement": "% Differentiated cells", "setting": "[7]; 300 × 10^-8 M, 8 days", "value": 95, "unit": "%"}, {"measurement": "EC50", "setting": "[7]", "value": 1500, "unit": "nM"}, {"measurement": "% of 1,25-(OH)2 D3 Effect in Rat, intestinal calcium absorption", "setting": "[3]", "value": 71, "unit": "%"}]}]}
